Measured values as given in ChEMBL document CHEMBL1150686, “Three new sesquiterpenes from the red alga Laurencia perforata” (J Nat Prod, 2003).
Activity calls are given as the source filed them. The calls are words filed in the database; no cut-off is given here.

Experiments:
[1] = Inhibition of protein tyrosine kinase
[2] = molecular target: Human immunodeficiency virus type 1 reverse transcriptase (Human immunodeficiency virus 1) (UniProt Q72547); assay: Inhibition of HIV1 reverse transcriptase

Row | Activity [1] | Activity [2] | Structure (SMILES)
1 | inactive | inactive | CC1=CC[C@@]2(C)C(=C(C)C(=O)[C@H](O)[C@@H]2C)[C@H](O)C1 (relative stereo)
2 | inactive | inactive | C=C1[C@@H]2CC[C@]13[C@H](C)C(=O)[C@@H](O)[C@@H](C)[C@]3(C)C2 (relative stereo)
3 | inactive | inactive | CC1=CC[C@@]2(C)C(=C(C)C(=O)[C@H](O)[C@@H]2C)CC1
